Results taken from patent publication US7128897B2, “Aerosolized anti-infectives, anti-inflammatories, and decongestants for the treatment of sinusitis” (Naryx Pharma, Inc., priority 1999, dated 2006).

How the values were obtained:
sinusitis = assay type: in vivo, human; conditions: for efficacy of nose drop: nose drop (tobramycin 80 mg/ml; Mupirocin calcium 2%)
Description: A person had been suffering from sinusitis for most of their adult life. These sinusitis episodes seemed to be triggered by allergies. They historically had three-four (3–4) episodes of sinusitis each year, which were treated with oral antibiotics for four-eight (4–8) weeks per episode. These oral antibiotic regimens produced yeast infections, which were treated with Diflucan® (fluconazole). Relief from the headaches, malaise, facial pressure and pain, yellow-green nasal discharge, coughing and fever took up to six weeks and were treated with narcotic and non narcotic analgesics, decongestants, decongestant nasal sprays, cough suppressants, and nasal rinses. Their allergies were treated with antihistamines and anti-inflammatory agents. In an effort to reduce the duration of their sinusitis episodes, a nose drop of tobramycin 80 mg/ml was administered. […] The medication was irritating; and in order to administer the drops and try to get them into the sinus cavity, the patient had to hold their head back. This caused intolerable pain resulting in the discontinuation of the therapy. A nose drop of Bactoban® (Mupirocin calcium 2%) was tried. […] In order to eliminate the pain caused by holding their head back when administering nose drops, a nose drop of tobramycin was administered after the patient had been on oral antibiotics for a period of time.

paranasal sinusitis = conditions: 4 ml of 3% FOM solution; ultrasonic-type nebulizer compared with jet-type; cited from earlier work
[1] = system: clinical isolates from sinusitis patients; conditions: one percent (1%) solution used with a nebulizer; cited from earlier work
sinus infection = test: Nebulized antibiotic treatment of sinusitis patients (case reports, Patients A, B, C); assay type: in vivo, human; conditions: for time to "dumping" of green, purulent nasal discharge: nebulized three times daily
Description: Thereafter, a preparation of tobramycin 80 mg/ml was administered using 3 ml in a Pari LC Star® nebulizer cup with adult mask attached and a Pari Proneb® compressor. The medication was nebulized three (3) times daily. After four days of therapy, the patient experienced a “dumping” of green, purulent nasal discharge. The therapy was continued for a total of seven (7) days. […] Another seven (7) day regimen of nebulized tobramycin was given to the patient.
A preparation of cefuroxime 285 mg in 2.5 ml sterile water for injection was administered three (3) times daily using a Pari LC Star® nebulizer cup with adult mask attached and a Pari Proneb® compressor. […] After one day of therapy, a Pari Turbo® compressor was substituted for the Pari Proneb® compressor. The patient experienced a “dumping” of green, purulent nasal discharge after (3) days of therapy.
After the seven (7) days of treatment with nebulized cefuroxime using the Pari Turbo® compressor and the Pari LC Star® nebulizer cup with mask, the patient has remained free of sinus infections for nine (9) months. They have continued to experience problems with their allergies, and while in the past these allergies triggered sinus infections, this time no such infection has recurred.
A person had been experiencing sinus infections off and on during their adult life. They were treated with cefuroxime 285 mg in 2.5 ml of sterile water for injection three (3) times daily using a Pari LC Star® nebulizer cup with adult mask attached and a Pari Turbo® compressor. The patient experienced a “dumping” of green, purulent nasal discharge after eight (8) treatments. The therapy was continued for a total of seven (7) days. No other antibiotics were given. This patient has been free from sinus infections for six (6) months.
They were treated with cefuroxime 285 mg in 2.5 ml of sterile water for injection three (3) times daily using a Pari LC Star® nebulizer cup with adult mask attached and a Pari Turbo® compressor. The patient experienced a “dumping” of green, purulent nasal discharge after eight (8) treatments. The therapy was continued form a total of seven (7) days. No other antibiotics were given. This patient has been free from sinus infections for six (6) months.

refractory sinusitis = conditions: large particle saline aerosol therapy with tobramycin added; cited from earlier work
[2] = Patient A, second 7 day regimen of nebulized tobramycin

C/C(=C\C(=O)OCCCCCCCCC(=O)[O-])C[C@@H]1OC[C@H](C[C@@H]2O[C@H]2[C@@H](C)[C@H](C)O)[C@@H](O)[C@H]1O.C/C(=C\C(=O)OCCCCCCCCC(=O)[O-])C[C@@H]1OC[C@H](C[C@@H]2O[C@H]2[C@@H](C)[C@H](C)O)[C@@H](O)[C@H]1O.O.O.[Ca+2] [Bactoban, Mupirocin calcium]
efficacy of nose drop (sinusitis; Patient A): not efficacious

C[C@@H]1O[C@@H]1P(=O)(O)O [FOM, fosfomycin]
delivery to maxillary sinus surface, ultrasonic-type vs jet-type nebulizer (paranasal sinusitis): higher concentration of FOM to the maxillary sinus surface

CO/N=C(\C(=O)N[C@@H]1C(=O)N2C(C(=O)O)=C(CSc3nnnn3C)CS[C@H]12)c1csc(N)n1 [cefmenoxime]
minimum inhibitory concentrations [1]: minimum inhibitory concentrations were lower

CO/N=C(\C(=O)N[C@@H]1C(=O)N2C(C(=O)O)=C(COC(N)=O)CS[C@H]12)c1ccco1 [cefuroxime, Cefuroxime]
adverse event during nebulized therapy (sinus infection; Patient A, 285 mg in 2.5 ml nebulized three times daily, 7 days): contracted a yeast infection
time free of sinus infections after treatment (sinus infection; Patient A, 285 mg in 2.5 ml nebulized three times daily, 7 days, Pari Turbo compressor): 9 months
time to "dumping" of green, purulent nasal discharge (sinus infection; Patient A): 3 days
number of treatments until "dumping" of green, purulent nasal discharge (sinus infection; Patient B, 285 mg in 2.5 ml nebulized three times daily): 8 treatments
time free from sinus infections after treatment (sinus infection; Patient B, 285 mg in 2.5 ml nebulized three times daily, 7 days): 6 months
number of treatments until "dumping" of green, purulent nasal discharge (sinus infection; Patient C, 285 mg in 2.5 ml nebulized three times daily): 8 treatments
time free from sinus infections after treatment (sinus infection; Patient C, 285 mg in 2.5 ml nebulized three times daily, 7 days): 6 months

NC[C@H]1O[C@H](O[C@H]2[C@H](O)[C@@H](O[C@H]3O[C@H](CO)[C@@H](O)[C@H](N)[C@H]3O)[C@H](N)C[C@@H]2N)[C@H](N)C[C@@H]1O [tobramycin, Tobramycin]
efficacy of nose drop (sinusitis; Patient A): did not seem to work
efficacy of nose drop given after oral antibiotics (sinusitis; Patient A, nose drop after a period on oral antibiotics): did not seem to work
tolerability of nose drop (sinusitis; human, in vivo): irritating
benefit of addition to saline aerosol (refractory sinusitis): minimal benefit
relapse after first seven day regimen (sinus infection; Patient A, first 7 day regimen of nebulized tobramycin): relapse was experienced within a month
time to "dumping" of green, purulent nasal discharge (sinus infection; Patient A): four
outcome after second seven day regimen (sinus infection; [2]): sinus infection seemed to be eliminated
time to recurrence after second seven day regimen (sinus infection; [2]): ≤ 2 months
outcome after first seven day regimen (sinus infection; Patient A, tobramycin 80 mg/ml, 3 ml nebulized three times daily, 7 days): sinus infection had been eliminated
